Experimental data published in patent publication US3982931A, “N,N-di-sec.butyl-benzamide herbicides” (priority 1967, dated 1976).

Assays:
avena sativa (oats) = assay: activity on agrarian species, soil treatment one day after sowing; assay type: in vivo, Avena sativa L.
artemisia vulgaris L. = assay: herbicidal activity, soil treatment one day after sowing; assay type: in vivo
pisum sativum L. (pea) = assay: activity on agrarian species, soil treatment one day after sowing; assay type: in vivo
solanum Lycopersicum L. = assay: as above; assay type: in vivo; conditions: 6 kg/ha
Excerpt: The infesting species and the agrarian species have been indicated in Table 1 by letters, as follows:
M = solanum Lycopersicum L.
(§1) Method of evaluation of the results (of tests):
(§2) 0 = no activity and no difference with respect to the control;
(§3) 1 slight differences with respect to the control;
(§4) 3 = considerable activity with damages that definitely impair the further development of most of the small plants; an activity degree already useful for practical purposes;
(§5) 4 = maximum of activity with lack of germination or total containment of the small plants in the emerging stage.
In the case of an intermediate activity between two classes of the scale, both values are recorded with the one which corresponds to the preeminent activity preceding. […]

vicia sativa L. = assay: herbicidal activity, soil treatment one day after sowing; assay type: in vivo
Summary of the method: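 Pre-emergence soil treatment one day after sowing; activity scored visually on a […] scale against untreated control, from slight difference (1) to no germination or total containment at emergence (4); intermediate activity recorded as both classes, preeminent value first.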

rice = assay: Example 3 rice field test, granular composition; assay type: in vivo; conditions: 4, 6, 8 and 10 kg/ha
Method: (§6) In this test a granular composition of PA 106 containing 5% of active principle and 95% of bentonite was used. The treatment was carried out in a rice field with areas of from 900 to 1000 sq.m on naked soil flooded just shortly before the sowing of the rice. There were used doses of granulate equal to 4, 6, 8 and 10 kg of active substance per hectar of surface.

Echinocloa crus-galli = assay: Example 3 rice field test, granular composition; assay type: in vivo; conditions: 6 kg of PA 106 per hectar
Method: as §6

Brassica napus L. colza = assay: activity of PA 106 on useful species; assay type: in vivo
Excerpt: as §1, §2, §3, §4, §5
(§7) In the case of an intermediate activity between two classes of the scale, both values are recorded with the one which corresponds to the preeminent activity preceding.
(§8) TABLE 3 reports data on the herbicidal activity against infesting herbs, while TABLE 4 reports data concerning the activity on useful species of agricultural cultivations. These tables employ the criterion explained previously. The product was spread on the soil one day after sowing, in quantities of 1, 3, 6, 8, 10, 12 and 14 kg/ha.

[1] = test system: Brassica oleracea, L. (cabbage); assay: activity of PA 106 on useful species; assay type: in vivo
Excerpt: as §1, §2, §3, §4, §5, §7, §8

[2] = test system: Hordeum vulgare L. (barley); assay: activity of PA 106 on useful species; assay type: in vivo
Excerpt: as §1, §2, §3, §4, §5, §7, §8

Soja Hispida L. (soya) = assay: activity of PA 106 on useful species; assay type: in vivo
Excerpt: as §1, §2, §3, §4, §5, §7, §8

[3] = test system: phaseolus vulgaris (bean); assay: activity on agrarian species, soil treatment one day after sowing; assay type: in vivo, Phaseolus vulgaris L.
Summary of the method: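 Product applied to soil one day after sowing at 1, 3, 6, 8, 10, 12 and 14 kg/ha. Effect on bean plants scored against control on a 0–4 scale, 4 meaning no germination or total containment at emergence; intermediate activity recorded with both values.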

Q: With `CCC(C)N(C(=O)c1ccc(Cl)c(Cl)c1)C(C)CC` (centres unmarked) [PA106, 3,4-dichloro-N,N-di-sec.butyl-benzamide] as the compound, how does the “activity on useful species, Table 4” value (avena sativa (oats); 1 kg/ha) read?
A: 0

Q: What about the “activity on useful species, Table 4” value (avena sativa (oats); 3 kg/ha) of the same compound?
A: 0

Q: And the “activity on G, 0-4 scale” value (avena sativa (oats); 6 kg/ha)?
A: 0

Q: What about the “activity on useful species, Table 4” value (avena sativa (oats); 6 kg/ha) of the same compound?
A: 0

Q: And the “activity on useful species, Table 4” value (avena sativa (oats); 8 kg/ha)?
A: 0

Q: What about the “activity on useful species, Table 4” value (avena sativa (oats); 10 kg/ha) of the same compound?
A: 0/1

Q: And the “activity on useful species, Table 4” value (avena sativa (oats); 12 kg/ha)?
A: 0/1

Q: And the “activity on useful species, Table 4” value (avena sativa (oats); 14 kg/ha)?
A: 1

Q: And the “herbicidal activity, Table 3” value (artemisia vulgaris L.; 1 kg/ha)?
A: 0

Q: And the “activity on B, 0-4 scale” value (artemisia vulgaris L.; 2 kg/ha)?
A: 0-1

Q: What about the “herbicidal activity, Table 3” value (artemisia vulgaris L.; 3 kg/ha) of the same compound?
A: 1

Q: And the “activity on B, 0-4 scale” value (artemisia vulgaris L.; 4 kg/ha)?
A: 1-2

Q: What about the “activity on B, 0-4 scale” value (artemisia vulgaris L.; 6 kg/ha) of the same compound?
A: 3

Q: What about the “herbicidal activity, Table 3” value (artemisia vulgaris L.; 6 kg/ha) of the same compound?
A: 3

Q: What about the “herbicidal activity, Table 3” value (artemisia vulgaris L.; 8 kg/ha) of the same compound?
A: 3

Q: And the “herbicidal activity, Table 3” value (artemisia vulgaris L.; 10 kg/ha)?
A: 3

Q: What about the “herbicidal activity, Table 3” value (artemisia vulgaris L.; 12 kg/ha) of the same compound?
A: 4/3

Q: And the “herbicidal activity, Table 3” value (artemisia vulgaris L.; 14 kg/ha)?
A: 4

Q: What about the “activity on useful species, Table 4” value (pisum sativum L. (pea); 1 kg/ha) of the same compound?
A: 0

Q: What about the “activity on useful species, Table 4” value (pisum sativum L. (pea); 3 kg/ha) of the same compound?
A: 0

Q: What about the “activity on L, 0-4 scale” value (pisum sativum L. (pea); 6 kg/ha) of the same compound?
A: 0

Q: What about the “activity on useful species, Table 4” value (pisum sativum L. (pea); 6 kg/ha) of the same compound?
A: 0

Q: What about the “activity on useful species, Table 4” value (pisum sativum L. (pea); 8 kg/ha) of the same compound?
A: 0

Q: And the “activity on useful species, Table 4” value (pisum sativum L. (pea); 10 kg/ha)?
A: 0

Q: What about the “activity on useful species, Table 4” value (pisum sativum L. (pea); 12 kg/ha) of the same compound?
A: 0

Q: And the “activity on useful species, Table 4” value (pisum sativum L. (pea); 14 kg/ha)?
A: 0

Q: And the “activity on M, 0-4 scale” value (solanum Lycopersicum L.)?
A: 0

Q: And the “activity on F, 0-4 scale” value (vicia sativa L.; 2 kg/ha)?
A: 0

Q: What about the “activity on F, 0-4 scale” value (vicia sativa L.; 4 kg/ha) of the same compound?
A: 0

Q: And the “activity on F, 0-4 scale” value (vicia sativa L.; 6 kg/ha)?
A: 0

Q: And the damage to rice (rice)?
A: without suffering any damage

Q: What about the “inhibition of growth of the infestant” value (Echinocloa crus-galli) of the same compound?
A: for all practical purposes be considered as total

Q: What about the “activity on useful species, Table 4” value (Brassica napus L. colza; 1 kg/ha) of the same compound?
A: 0

Q: And the “activity on useful species, Table 4” value (Brassica napus L. colza; 3 kg/ha)?
A: 0

Q: And the “activity on useful species, Table 4” value (Brassica napus L. colza; 6 kg/ha)?
A: 1

Q: What about the “activity on useful species, Table 4” value (Brassica napus L. colza; 8 kg/ha) of the same compound?
A: 1/2

Q: And the “activity on useful species, Table 4” value (Brassica napus L. colza; 10 kg/ha)?
A: 2/3

Q: What about the “activity on useful species, Table 4” value (Brassica napus L. colza; 12 kg/ha) of the same compound?
A: 3

Q: What about the “activity on useful species, Table 4” value (Brassica napus L. colza; 14 kg/ha) of the same compound?
A: 3

Q: And the “activity on useful species, Table 4” value ([1]; 1 kg/ha)?
A: 0

Q: What about the “activity on useful species, Table 4” value ([1]; 3 kg/ha) of the same compound?
A: 0

Q: And the “activity on useful species, Table 4” value ([1]; 6 kg/ha)?
A: 0/1

Q: And the “activity on useful species, Table 4” value ([1]; 8 kg/ha)?
A: 1

Q: And the “activity on useful species, Table 4” value ([1]; 10 kg/ha)?
A: 1/2

Q: What about the “activity on useful species, Table 4” value ([1]; 12 kg/ha) of the same compound?
A: 1/2

Q: And the “activity on useful species, Table 4” value ([1]; 14 kg/ha)?
A: 2

Q: And the “activity on useful species, Table 4” value ([2]; 1 kg/ha)?
A: 0

Q: What about the “activity on useful species, Table 4” value ([2]; 3 kg/ha) of the same compound?
A: 0

Q: What about the “activity on useful species, Table 4” value ([2]; 6 kg/ha) of the same compound?
A: 0

Q: What about the “activity on useful species, Table 4” value ([2]; 8 kg/ha) of the same compound?
A: 0

Q: What about the “activity on useful species, Table 4” value ([2]; 10 kg/ha) of the same compound?
A: 0/1

Q: What about the “activity on useful species, Table 4” value ([2]; 12 kg/ha) of the same compound?
A: 0/1

Q: What about the “activity on useful species, Table 4” value ([2]; 14 kg/ha) of the same compound?
A: 0/1

Q: What about the “activity on useful species, Table 4” value (Soja Hispida L. (soya); 1 kg/ha) of the same compound?
A: 0

Q: What about the “activity on useful species, Table 4” value (Soja Hispida L. (soya); 3 kg/ha) of the same compound?
A: 0

Q: What about the “activity on useful species, Table 4” value (Soja Hispida L. (soya); 6 kg/ha) of the same compound?
A: 0

Q: And the “activity on useful species, Table 4” value (Soja Hispida L. (soya); 8 kg/ha)?
A: 0

Q: And the “activity on useful species, Table 4” value (Soja Hispida L. (soya); 10 kg/ha)?
A: 0/1

Q: And the “activity on useful species, Table 4” value (Soja Hispida L. (soya); 12 kg/ha)?
A: 0/1

Q: What about the “activity on useful species, Table 4” value (Soja Hispida L. (soya); 14 kg/ha) of the same compound?
A: 0/1

Q: And the “activity on useful species, Table 4” value ([3]; 1 kg/ha)?
A: 0

Q: What about the “activity on useful species, Table 4” value ([3]; 3 kg/ha) of the same compound?
A: 0

Q: And the “activity on I, 0-4 scale” value ([3]; 6 kg/ha)?
A: 0

Q: What about the “activity on useful species, Table 4” value ([3]; 6 kg/ha) of the same compound?
A: 0

Q: And the “activity on useful species, Table 4” value ([3]; 8 kg/ha)?
A: 0

Q: And the “activity on useful species, Table 4” value ([3]; 10 kg/ha)?
A: 0

Q: What about the “activity on useful species, Table 4” value ([3]; 12 kg/ha) of the same compound?
A: 0/1

Q: And the “activity on useful species, Table 4” value ([3]; 14 kg/ha)?
A: 0/1
